The values that follow come from article PMC6972948 (Scientific Reports, 2020).

For the test, the system named is A/duck/Ukraine/1/1963. It is filed as cell-based, avian influenza A virus.

Molecules are shown by their SMILES.

With `CCC(CC)O[C@@H]1C=C(C(=O)O)C[C@H](N)[C@H]1NC(C)=O` [Oseltamivir carboxylate, oseltamivir carboxylate], the plaque formation entry is recorded as “complete abrogation of plaque formation”. Moreover, for the setting “Conc. 1 μM”, the Plaque dia. is recorded as 0 mm and the Plaque qty. is on record as 0.
